Measured values taken from article PMC6445123 (Scientific Reports, 2019).
“And” between values parts separate entries of the source, which are not always exact repeats. Identical values can stand only once.

Target: T1, Casp6-L200A-LS-SS (Homo sapiens, UniProt P55212, L200A)
T1 construct: obtained by co-expression and purification of LS and SS subunits of WT, L200A or K284A Casp6 from E. coli; His (C); made in house; host or cells: E. coli BL21(DE3)pLysS
T1 sequence (P55212 24-179 limits assumed): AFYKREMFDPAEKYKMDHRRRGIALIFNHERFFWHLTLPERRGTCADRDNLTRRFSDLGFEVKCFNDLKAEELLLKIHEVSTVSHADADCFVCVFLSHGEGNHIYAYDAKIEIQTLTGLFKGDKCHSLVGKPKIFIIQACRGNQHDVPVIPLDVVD
T1 sequence (P55212 194-293 L200A limits assumed): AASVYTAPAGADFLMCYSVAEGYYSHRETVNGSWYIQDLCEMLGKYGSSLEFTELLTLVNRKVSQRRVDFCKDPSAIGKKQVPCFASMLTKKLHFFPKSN
Assay: C13 dose-response and global-fit kinetics on Casp6-L200A-LS-SS
Assay type: biochemical
Excerpt: Figure 4 Compounds S10G and C13 inhibit Casp6 through a noncompetitive mode of inhibition. (a) Michaelis-Menten kinetic plots of Casp6 enzymatic activity in presence of 1% DMSO or increasing doses S10G (top) and C13 (bottom). Data points represent mean ± SD of three independent experiments. (b) Lineweaver-Burk plots of Casp6 inhibition with S10G (top) and C13 (bottom). Red circle indicates the point where lines converge. (c) The relationship between the slopes of lines in Lineweaver-Burk plot analyses in panel (b) and inhibitor concentration. (d) Plots of IC50 values for S10G (top) and C13 (bottom) with varying concentrations of Ac-VEID-AFC substrate. Data points represent mean ± SD from three independent experiments for each substrate concentration. (e) Binding model of C13 into CASP6 putative allosteric site, derived from molecular docking. Left: C13 (green sticks) occupies the putative allosteric site (white surface and lines; Ala-mutated residues L200 and K284 shown as purple sticks). Right: predicted interactions with Casp6 allosteric pocket residues (pink balls polar, circled blue or red for basic and acidic, respectively. Green balls = hydrophobic. Dotted-arrow: blue and green for backbone and sidechain hydrogen-bond interactions, respectively. Blue shade = solvent exposed area). Dose-response curves of C13 for Casp6-WT and Casp6-K284A (f), and copurified LS and SS of Casp6-WT-LS-SS, Casp6-L200A-LS-SS, and Casp6-K284A-LS-SS (g). Data represent mean ± SD from at least three independent experiments. (h) Global fit of kinetics data to a noncompetitive (mixed) inhibition model for Casp6-WT-LS-SS (left panel, R^2 = 0.9635), Casp6-L200A-LS-SS (middle panel, R^2 = 0.9699), and Casp6-K284A-LS-SS (right panel, R^2 = 0.9794) in the presence of 0–50 µM C13. Data points on the graph represent the mean ± SD, and calculated Ki values represent mean ± standard error (SE) from three independent experiments.
To determine the importance of C13 interactions with L200 and K284 for C13 binding in the Casp6 allosteric pocket, we have generated Casp6-L200A and Casp6-K284A mutants and investigated inhibition with C13. […]
Compounds, S10G (2.5 µM, 4.2 µM, 10 µM), and C13 (5 µM, 14 µM, 50 µM), were added to 20 nM active site titrated Casp6 and enzyme activity was measured with eight different Ac-VEID-AFC substrate concentrations (5.0 μM–200 μM) using fluorescence-based Casp6 activity assay as above. The apparent KM and Vmax values were determined through nonlinear regression analysis of Michaelis-Menten plots (v vs. [S]) using GraphPad Prism 5. The inhibition mode was determined from the pattern of converging Lineweaver-Burk plots (1/v vs. 1/[S])[54]. […]

COC(=O)c1cc(CNC(=O)C2Cc3ccccc3O2)cc(NC(=O)c2ccco2)c1 (stereo not shown) [Compound C13]
fold lower IC50 for Casp6-L200A-LS-SS compared to Casp6-WT-LS-SS: 1.4 fold
inhibition model (best global fit), Casp6-L200A-LS-SS (Ac-VEID-AFC hydrolysis, increasing substrate and C13 concentrations): noncompetitive (mixed) model inhibition
IC50 (copurified LS and SS, read-out: IC50 of C13 for Casp6-L200A-LS-SS (Fig. 4g)): 23.4 ± 4.5 µM
Ki (global fit to noncompetitive (mixed) model, 0–50 µM C13, mean ± SE): 6.82 µM and 6.8 µM
